Test results from patent publication US10945992B1, “Dosage forms of rofecoxib and related methods” (Tremeau Pharmaceuticals, Inc., priority 2019, dated 2021).
Like-named read-outs stand apart in the source and are kept apart here.

Assay: TRM-201-PK-102 single-dose four-period crossover pharmacokinetic study, fasted healthy subjects
Assay type: in vivo, human
Details: human, plasma, oral
Procedure: A Single-Dose, Open-Label, Phase 1, Four-Period Crossover Pharmacokinetic Study of TRM-201 (Rofecoxib) 12.5 mg, 17.5 mg, 20 mg and 25 mg Administered to Healthy Subjects in a Fasting State, with Comparison to Historical Pharmacokinetic Parameters of Previously Marketed Rofecoxib (“TRM-201-PK-102” or “102 PK Study”)
This was a single-center, open-label four-period crossover PK study of TRM-201. The study included 24 subjects who received TRM-201 as a single dose of 12.5 mg, 17.5 mg, 20 mg and 25 mg to assess the PK of TRM-201 in healthy volunteers under fasted conditions. Subjects were randomized to one of four treatment sequences. The PK data from the current study along with the data from the TRM-201-PK-101 study (Example 4) was used to compare to historical pharmacokinetic parameters of previously marketed rofecoxib, all in a fasted state.
In each of the four dosing periods, subjects fasted overnight for at least 10 hours before study drug dosing. While fasting, subjects had nothing to eat and only water to drink. Water was permitted as desired, except for the period between 1 hour before and 1 hour after study drug dosing (excepting as permitted for dosing). After the 2-hour PK blood sample, subjects were allowed one 250-mL cup of clear apple juice. After the 4-hour PK blood sample, subjects were served a light lunch. Following the light lunch, subjects received standardized meals according to the clinic's standard procedures that were scheduled at consistent times and at least 15 minutes before or 15 minutes after PK sampling time points. Blood was withdrawn for PK analysis at predefined time points. For each dosing period the last time point was 120 hours after dosing with study drug (Day 6). After the 120 hour PK sample, the EOP procedures was completed, subjects remained in-clinic for the in-between dose period day (Days 7, 14, and 21) and began the next dosing period starting with an overnight fast for at least 10 hours on Day −1 of the subsequent dosing period. Pharmacokinetic and safety endpoints were evaluated.
The study drug, TRM-201, was an immediate-release tablet that contained 12.5 mg rofecoxib, 17.5 mg rofecoxib, 20 mg rofecoxib or 25 mg rofecoxib. The 7.25-mm diameter tablets were off-white, round, and uncoated with no markings. TRM-201 tablets were for oral administration.
For each sample, approximately 3 mL of blood were drawn. The samples were obtained by a straight stick or via an in-dwelling intravenous (IV) catheter in a forearm vein. Additional details for the collection, processing, storage, and shipping of PK samples were provided in the study manual.
Pharmacokinetic samples will be analyzed using a validated assay for rofecoxib in human plasma. Assay results and validation details will be provided in a separate bioanalytical report. The following PK parameters for rofecoxib will be calculated as primary endpoints using standard noncompartmental methods: AUC0-∞ and Cmax. Secondary endpoints include Tmax, and t1/2. Additional PK parameters (e.g., CL/F, and Vd/F) will also be calculated using standard noncompartmental methods.
Individual plasma concentrations for rofecoxib and PK sampling time deviation data will be presented in a data listing. Plasma concentration data will be summarized by time point using the following descriptive statistics: number of subjects, arithmetic mean, SD, coefficient of variation (CV), geometric mean, natural-log-scale SD, geometric CV, median, minimum, and maximum. Individual plasma concentration versus actual time profiles were presented on both linear and semilogarithmic scales. Additionally, arithmetic mean concentration versus scheduled time profiles were presented on linear scales and geometric means on semilogarithmic scales.
The PK parameters of rofecoxib were analyzed based on the actual sampling times. […]

[1] = 20 mg, read-out: arithmetic mean plasma concentration
[2] = 20 mg, read-out: geometric mean plasma concentration

CS(=O)(=O)c1ccc(C2=C(c3ccccc3)C(=O)OC2)cc1 [TRM-201, 4-[4-(methylsulfonyl)phenyl]-3-phenyl-2(5H)-furanone]
AUC(0-inf) (20 mg, 102 study only, read-out: arithmetic mean AUC0-∞): 3.75 µg·h/mL
Cmax (20 mg, 102 study only, read-out: arithmetic mean Cmax): 0.277 µg/mL
AUC(0-inf) (20 mg, 102 study only, read-out: geometric mean AUC0-∞): 3.55 µg·h/mL
Cmax (20 mg, 102 study only, read-out: geometric mean Cmax): 0.259 µg/mL
AUC(0-inf) (20 mg, 102 study, 18-40 years, read-out: arithmetic mean AUC0-∞): 3.58 µg·h/mL
Cmax (20 mg, 102 study, 18-40 years, read-out: arithmetic mean Cmax): 0.308 µg/mL
AUC(0-inf) (20 mg, 102 study, 18-40 years, read-out: geometric mean AUC0-∞): 3.42 µg·h/mL
Cmax (20 mg, 102 study, 18-40 years, read-out: geometric mean Cmax): 0.289 µg/mL
AUC(0-inf) (20 mg, 102 study, 41-52 years, read-out: arithmetic mean AUC0-∞): 3.73 µg·h/mL
Cmax (20 mg, 102 study, 41-52 years, read-out: arithmetic mean Cmax): 0.262 µg/mL
AUC(0-inf) (20 mg, 102 study, 41-52 years, read-out: geometric mean AUC0-∞): 3.36 µg·h/mL
Cmax (20 mg, 102 study, 41-52 years, read-out: geometric mean Cmax): 0.242 µg/mL
AUC(0-inf) (20 mg, 102 study, 53-60 years, read-out: arithmetic mean AUC0-∞): 3.94 µg·h/mL
Cmax (20 mg, 102 study, 53-60 years, read-out: arithmetic mean Cmax): 0.26 µg/mL
AUC(0-inf) (20 mg, 102 study, 53-60 years, read-out: geometric mean AUC0-∞): 3.88 µg·h/mL
Cmax (20 mg, 102 study, 53-60 years, read-out: geometric mean Cmax): 0.249 µg/mL
AUC(0-inf) (20 mg, 102 study, Black or African-American subjects, read-out: arithmetic mean AUC0-∞): 3.38 µg·h/mL
Cmax (20 mg, 102 study, Black or African-American subjects, read-out: arithmetic mean Cmax): 0.298 µg/mL
AUC(0-inf) (20 mg, 102 study, Black or African-American subjects, read-out: geometric mean AUC0-∞): 3.3 µg·h/mL
Cmax (20 mg, 102 study, Black or African-American subjects, read-out: geometric mean Cmax): 0.295 µg/mL
AUC(0-inf) (20 mg, 102 study, Hispanic or Latino subjects, read-out: arithmetic mean AUC0-∞): 3.84 µg·h/mL
Cmax (20 mg, 102 study, Hispanic or Latino subjects, read-out: arithmetic mean Cmax): 0.281 µg/mL
AUC(0-inf) (20 mg, 102 study, Hispanic or Latino subjects, read-out: geometric mean AUC0-∞): 3.63 µg·h/mL
Cmax (20 mg, 102 study, Hispanic or Latino subjects, read-out: geometric mean Cmax): 0.258 µg/mL
AUC(0-inf) (20 mg, 102 study, White subjects, read-out: arithmetic mean AUC0-∞): 3.85 µg·h/mL
Cmax (20 mg, 102 study, White subjects, read-out: arithmetic mean Cmax): 0.271 µg/mL
AUC(0-inf) (20 mg, 102 study, White subjects, read-out: geometric mean AUC0-∞): 3.61 µg·h/mL
Cmax (20 mg, 102 study, White subjects, read-out: geometric mean Cmax): 0.25 µg/mL
AUC(0-inf) (20 mg, 102 study, body weight 47-70 kg, read-out: arithmetic mean AUC0-∞): 3.65 µg·h/mL
Cmax (20 mg, 102 study, body weight 47-70 kg, read-out: arithmetic mean Cmax): 0.336 µg/mL
AUC(0-inf) (20 mg, 102 study, body weight 47-70 kg, read-out: geometric mean AUC0-∞): 3.34 µg·h/mL
Cmax (20 mg, 102 study, body weight 47-70 kg, read-out: geometric mean Cmax): 0.307 µg/mL
AUC(0-inf) (20 mg, 102 study, body weight 70.1-77 kg, read-out: arithmetic mean AUC0-∞): 4.5 µg·h/mL
Cmax (20 mg, 102 study, body weight 70.1-77 kg, read-out: arithmetic mean Cmax): 0.259 µg/mL
AUC(0-inf) (20 mg, 102 study, body weight 70.1-77 kg, read-out: geometric mean AUC0-∞): 4.4 µg·h/mL
Cmax (20 mg, 102 study, body weight 70.1-77 kg, read-out: geometric mean Cmax): 0.248 µg/mL
AUC(0-inf) (20 mg, 102 study, body weight 77.1-90 kg, read-out: arithmetic mean AUC0-∞): 3.25 µg·h/mL
Cmax (20 mg, 102 study, body weight 77.1-90 kg, read-out: arithmetic mean Cmax): 0.238 µg/mL
AUC(0-inf) (20 mg, 102 study, body weight 77.1-90 kg, read-out: geometric mean AUC0-∞): 3.17 µg·h/mL
Cmax (20 mg, 102 study, body weight 77.1-90 kg, read-out: geometric mean Cmax): 0.231 µg/mL
AUC(0-inf) (20 mg, 102 study, non-Hispanic or non-Latino subjects, read-out: arithmetic mean AUC0-∞): 3.66 µg·h/mL
Cmax (20 mg, 102 study, non-Hispanic or non-Latino subjects, read-out: arithmetic mean Cmax): 0.272 µg/mL
AUC(0-inf) (20 mg, 102 study, non-Hispanic or non-Latino subjects, read-out: geometric mean AUC0-∞): 3.47 µg·h/mL
Cmax (20 mg, 102 study, non-Hispanic or non-Latino subjects, read-out: geometric mean Cmax): 0.26 µg/mL
concentration at 15 minutes [1]: 0.00575 µg/mL
concentration at 15 minutes [2]: 0.00116 µg/mL
concentration at 45 minutes [1]: 0.121 µg/mL
concentration at 45 minutes [2]: 0.0726 µg/mL
AUC(0-inf) (25 mg, 102 study only, read-out: arithmetic mean AUC0-∞): 4.63 µg·h/mL
Cmax (25 mg, 102 study only, read-out: arithmetic mean Cmax): 0.349 µg/mL
AUC(0-inf) (25 mg, 102 study only, read-out: geometric mean AUC0-∞): 4.49 µg·h/mL
Cmax (25 mg, 102 study only, read-out: geometric mean Cmax): 0.341 µg/mL
AUC(0-inf) (25 mg, 102 study, 18-40 years, read-out: arithmetic mean AUC0-∞): 4.14 µg·h/mL
Cmax (25 mg, 102 study, 18-40 years, read-out: arithmetic mean Cmax): 0.366 µg/mL
AUC(0-inf) (25 mg, 102 study, 18-40 years, read-out: geometric mean AUC0-∞): 4.05 µg·h/mL
Cmax (25 mg, 102 study, 18-40 years, read-out: geometric mean Cmax): 0.356 µg/mL
AUC(0-inf) (25 mg, 102 study, 41-52 years, read-out: arithmetic mean AUC0-∞): 4.81 µg·h/mL
